Measured values from patent US20180036234A1, “TREATMENT OF BONE FRACTURES AND DEFECTS” (Entera Bio Ltd., priority 2015, published 2018).
“And” between values parts separate entries of the source, which are not always exact repeats. Equal values may be shown once.

How the values were obtained:
[1] = Dissolution test of tablets in simulated gastric buffer, released SNAC by HPLC; type: physicochemical; conditions: tablet with 100 mg sodium bicarbonate vs tablet without; simulated gastric buffer pH 2.0, 37° C.; FIG. 15
Method: The tablets were in a form of a homogeneous mixture.
Each tablet formulation was subjected to a dissolution test in 100 ml of simulated gastric buffer (without pepsin), pH 2.0, at 37° C., according to USP 23 Apparatus 2 (paddle) with 50 rotations per minute. The amount of released SNAC in each sample was determined chromatographically, using an HPLC apparatus with Cosmosil™ 5 C18-MS-II (4.6 ID×250 mm) column. Mobile phase consisted of 50% acetonitrile and 50% phosphoric acid solution (0.1%). Flow rate was 1 ml/minute and injection volume was 25 μl. Amount of released SNAC was calculated as a percentage of the amount of SNAC in the formulation.

[2] = Pharmacokinetic study of oral teriparatide tablet co-administered with water or sodium bicarbonate solution; type: in vivo, human; conditions: oral tablet 0.75 mg teriparatide with 150 ml of 3 mg/ml sodium bicarbonate solution, in comparison with 150 ml water; FIG. 16
Method: An open label comparative pharmacokinetic study was performed on ten healthy volunteers. On different visits, each volunteer received the same oral tablet containing 0.75 mg of teriparatide, a recombinant form of parathyroid hormone (1-34) (PTH(1-34)). In the first visit, the tablet was administered with 150 ml water, whereas in the second visit the tablet was administered with 150 ml of 3 mg/ml sodium bicarbonate aqueous solution.
(§1) The formulation was composed of teriparatide (0.75 mg), SNAC (sodium 8-N-(2-hydroxybenzoyl) aminocaprylate), soybean trypsin inhibitor (SBTI) and a small amount of magnesium stearate.
Tablets were administered in the morning after an 8-hour overnight fast. At each visit a standard meal was provided 3 hours after drug administration. […] There was a two week period between the two visits.
To determine PTH(1-34) concentrations, blood samples were drawn and PTH(1-34) levels were measured using an IDS-iSYS automated assay, using procedures described in Example 1 hereinabove. Relative absorption was determined based on the AUC (area under curve) parameter.

[3] = Phase I clinical study of oral teriparatide formulations, plasma PTH(1-34) versus subcutaneous injection; type: in vivo, human
Method: A Phase I clinical study of exemplary oral formulations comprising teriparatide (parathyroid hormone (1-34)) was conducted at the Hadassah Clinical Research Center. 42 healthy volunteers were included throughout the study.
The formulation was composed of teriparatide (200, 400, 680, 1400 or 1800 μg), SNAC (sodium 8-N-(2-hydroxybenzoyl) aminocaprylate), soybean trypsin inhibitor and magnesium stearate.
Tablets were administered in the morning after an 8-hour overnight fast and immediately followed by 150 ml of water. At each visit a standard meal was provided 3 hours after drug administration.
To determine parathyroid hormone concentrations, blood samples (4 ml each) were drawn via an indwelling catheter from the forearm vein at predetermined time points. The cannula was flushed with 1.5 ml normal saline after each sampling. In addition, to avoid sample dilution, 1 ml of blood was drawn and discarded before the next sample. The blood samples were taken at following times: baseline (predose), 15 minutes, 30 minutes, 45 minutes, 60 minutes, 75 minutes, 90 minutes, 105 minutes, 2 hours, 3 hours, 4 hours and 5 hours post-administration. Each blood sample was collected into a single tube containing EDTA (ethylenediaminetetraacetic acid) and placed on ice. Within 15 minutes of blood collection, samples were centrifuged for 10 minutes at 4° C. (2500 rotations per minute) and the plasma was separated and divided into two or three aliquots. Each aliquot was transferred into appropriately labeled polypropylene tubes and stored at approximately −20° C. pending analysis. PTH(1-34) levels were measured using an IDS-iSYS automated assay for the measurement of intact PTH(1-34) in human plasma or serum.
Oral administration of teriparatide was performed as described hereinabove at doses of 200, 400, 680, 1400 or 1800 μg. The Cmax of PTH(1-34) for each orally administered dose was compared with the Cmax of PTH(1-34) for subcutaneous injection of 20 μg teriparatide.

[4] = Pharmacokinetic study of oral teriparatide tablet (0.75 mg) in healthy volunteers; type: in vivo, human
Method: An open label comparative pharmacokinetic study was performed in healthy volunteers over the course of 3 months. Each volunteer received—in each of two visits—the same oral tablet containing 0.75 mg of teriparatide, a recombinant form of parathyroid hormone (1-34).
as §1
Tablets were administered in the morning after an 8-hour overnight fast and immediately followed by 150 ml of water. At each visit a standard meal was provided 3 hours after drug administration. […] There was a two weeks period between the visits.
To determine parathyroid hormone(1-34) (PTH(1-34)) concentrations, blood samples (4 ml each) were drawn via an indwelling catheter from the forearm vein at predetermined time points during each visit. The cannula was flushed with 1.5 ml normal saline after each sampling. In addition, to avoid sample dilution, 1 ml of blood was drawn and discarded before the next sample. The blood samples were taken at following times: baseline (predose), 10 minutes, 15 minutes, 20 minutes, 30 minutes, 45 minutes, 60 minutes, 75 minutes, 90 minutes, 105 minutes, 2 hours, 3 hours, 4 hours and 5 hours post-administration. Each blood sample was collected into a single tube containing EDTA (ethylenediaminetetraacetic acid) and placed on ice. Within 15 minutes of blood collection, samples were centrifuged for 10 minutes at 4° C. (2500 rotations per minute) and the plasma was separated and divided into two or three aliquots. Each aliquot was transferred into appropriately labeled polypropylene tubes and stored at approximately −20° C. pending analysis. PTH(1-34) levels were measured using an IDS-iSYS automated assay for the measurement of intact PTH(1-34) in human plasma or serum.

cAMP = test: Plasma cAMP levels after oral or subcutaneous teriparatide; type: in vivo, human; conditions: FIG. 4
Method: In addition, plasma levels of cAMP, a known marker of PTH activity, were determined in order to confirm biological activity of administered PTH. cAMP plasma levels were measured following oral administration of 680 μg teriparatide or subcutaneous injection of 20 μg teriparatide, as described hereinabove.

[5] = oral tablet 0.75 mg teriparatide with SNAC, SBTI, magnesium stearate, fasted healthy volunteers, plasma PTH(1-34), per subject (A, B, C)
[6] = oral tablet 0.75 mg teriparatide with SNAC, SBTI, magnesium stearate, second visit two weeks later, per subject (A, B, C)

SMILES	dissolution of SNAC in tablets [1]	soluble fraction of SNAC [1]	increase in absorption of PTH(1-34) (based on AUC) [2]	decline of PTH levels following oral administration compared with subcutaneous administration ([3]; oral 1800 μg vs subcutaneous 20 μg teriparatide, FIG. 3)	Cmax of PTH(1-34) following oral administration, relation to dose ([3]; oral tablets 200, 400, 680, 1400 or 1800 μg teriparatide with SNAC and SBTI, FIG. 2)	oral dose providing a Cmax equivalent to that of subcutaneous administration of 20 μg teriparatide ([3]; oral tablets with SNAC and SBTI, FIG. 2)	time for plasma levels to return to baseline levels after tablet administration ([4]; oral tablet 0.75 mg teriparatide with SNAC and SBTI, plasma)	Cmax after 1st administration [4, 5]	Tmax after 1st administration [4, 5]	Cmax after 2nd administration [4, 6]	Tmax after 2nd administration [4, 6]	plasma cAMP levels (cAMP; oral administration of 680 μg teriparatide (compared with subcutaneous 20 μg))	plasma cAMP levels (cAMP; subcutaneous administration of 20 μg teriparatide (compared with oral 680 μg))
O=C(O)CCCCCCCNC(=O)c1ccccc1O [SNAC, sodium 8-N-(2-hydroxybenzoyl)aminocaprylate]	considerably enhanced	preserved	–	–	–	–	–	–	–	–	–	–	–
CC[C@H](C)[C@H](NC(=O)[C@H](CCC(=O)O)NC(=O)[C@H](CO)NC(=O)[C@@H](NC(=O)[C@@H](N)CO)C(C)C)C(=O)N[C@@H](CCC(N)=O)C(=O)N[C@@H](CC(C)C)C(=O)N[C@@H](CCSC)C(=O)N[C@@H](Cc1cnc[nH]1)C(=O)N[C@@H](CC(N)=O)C(=O)N[C@@H](CC(C)C)C(=O)NCC(=O)N[C@@H](CCCCN)C(=O)N[C@@H](Cc1cnc[nH]1)C(=O)N[C@@H](CC(C)C)C(=O)N[C@@H](CC(N)=O)C(=O)N[C@@H](CO)C(=O)N[C@@H](CCSC)C(=O)N[C@@H](CCC(=O)O)C(=O)N[C@@H](CCCN=C(N)N)C(=O)N[C@H](C(=O)N[C@@H](CCC(=O)O)C(=O)N[C@@H](Cc1c[nH]c2ccccc12)C(=O)N[C@@H](CC(C)C)C(=O)N[C@@H](CCCN=C(N)N)C(=O)N[C@@H](CCCCN)C(=O)N[C@@H](CCCCN)C(=O)N[C@@H](CC(C)C)C(=O)N[C@@H](CCC(N)=O)C(=O)N[C@@H](CC(=O)O)C(=O)N[C@H](C(=O)N[C@@H](Cc1cnc[nH]1)C(=O)N[C@@H](CC(N)=O)C(=O)N[C@@H](Cc1ccccc1)C(=O)O)C(C)C)C(C)C [teriparatide]	–	–	about 35%	declined considerably more rapidly	proportional to the dose	roughly 750 μg	≤ 60 min	35 picogram/ml	10 min and 15 min	36 picogram/ml	20 min	increased plasma cAMP levels to a similar degree	increased plasma cAMP levels to a similar degree
